Source: patent US20200131669A1, “CYCLIC PEPTIDE COMPOUND HAVING HIGH MEMBRANE PERMEABILITY, AND LIBRARY CONTAINING SAME” (Chugai Seiyaku Kabushiki Kaisha, priority 2017, published 2020)
Starred links: 1 amine or outer side, 2 acyl side, 3 side chain; linkers in the order of their positions; H or OH if unused. Positions of bridges follow the written chain, without caps; N, C: chain ends. Non-standard residues stand in square brackets, D forms with d. Residues, ends and D or L forms follow the SMILES beside them. *: point of attachment. 3Pal(6-NMe2) = CN(C)c1ccc(C[C@H](N)C(=O)O)cn1; NMePhe(3-Cl) = CN[C@@H](Cc1cccc(Cl)c1)C(=O)O; Gly(NCH2CH2Ph) = O=C(O)CNCCc1ccccc1; N(isopentyl)Gly = CC(C)CCNCC(=O)O; NMeF = CN[C@@H](Cc1ccccc1)C(=O)O; NMeGABA = CN(CCCC(=O)[*:2])[*:1]; NMeL = CN[C@@H](CC(C)C)C(=O)O; NMeV = CN[C@H](C(=O)O)C(C)C; NMeAbu = CC[C@H](NC)C(=O)O; NPentylGly = CCCCCNCC(=O)O; NMeS = CN[C@@H](CO)C(=O)O; NMeA = CN[C@@H](C)C(=O)O; Piperidide = C1CCN(*)CC1; Abu = CC[C@H](N)C(=O)O; NBuGly = CCCCNCC(=O)O; Isopentyl = CC(C)CC*; Sar = CNCC(=O)O; tBu = CC(C)(C)*; Propyl = CCC*

Experiment: Caco-2 membrane permeability, improved method as used in the following Examples (96-well, 20 to 24 h preincubation)
Type: in vitro ADME
Conditions: human, Caco-2, Caco-2
How it was run: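 Caco-2 monolayers were grown three weeks and preincubated 20–24 h at 37 °C with compound in DMEM+FaSSIF (1% DMSO) apically. The assay then used compound in FaSSIF/HBSS (1% DMSO, pH 6.0) apically and HBSS with 4% BSA (pH 7.4) basally. Basal samples were taken at 180 min for LC/MS, and Papp (cm/sec) was calculated.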

`CC(C)C[C@@H]1NC(=O)[C@H](CC(C)C)N(C)C(=O)CCCN(C)C(=O)C[C@@H](C(=O)N2CCCCC2)NC(=O)[C@H](CC(C)C)N(C)C(=O)[C@H](CC(C)C)N(C)C(=O)[C@H]([C@@H](C)O)NC(=O)[C@H](CC(C)C)N(C)C(=O)[C@H](Cc2ccc(N(C)C)nc2)NC(=O)[C@H](Cc2ccccc2)N(C)C(=O)[C@H](CC(C)C)N(C)C1=O` [pd397] ([NMeGABA][NMeL]L[NMeL][NMeF][3Pal(6-NMe2)][NMeL]T[NMeL][NMeL]D-Piperidide; lactam N-11) and `CCCCN1CC(=O)N(C)[C@@H](CC(C)C)C(=O)N[C@@H](Cc2ccc(N(C)C)nc2)C(=O)N(C)[C@@H](CC(C)C)C(=O)N[C@@H]([C@@H](C)O)C(=O)N(C)CC(=O)N(C)[C@@H](Cc2ccccc2)C(=O)N(C)[C@@H](CC(C)C)C(=O)N[C@@H](COCCC(C)C)C(=O)N(C)[C@@H](C)C(=O)N[C@H](C(=O)N2CCCCC2)CC1=O` [pd402] ([NBuGly][NMeL][3Pal(6-NMe2)][NMeL]T[Sar][NMeF][NMeL]S(Isopentyl)[NMeA]D-Piperidide; lactam N-11) are within 1.5-fold of each other in Papp A→B at 180 min: 1.2 ×10⁻⁶ cm/s for the first, 1 ×10⁻⁶ cm/s for the second.

Compared with `CCCCN1CC(=O)N(C)[C@@H](C)C(=O)N[C@H](C(=O)N2CCCCC2)CC(=O)N(C)[C@@H](C(C)C)C(=O)N[C@@H](CC(C)C)C(=O)N(C)[C@@H](CC(C)C)C(=O)N(C)[C@@H](Cc2cccc(Cl)c2)C(=O)N[C@@H](Cc2ccc(N(C)C)nc2)C(=O)N(C)[C@@H](C)C(=O)N(C)[C@@H](CC(C)C)C(=O)N[C@@H]([C@@H](C)O)C1=O` [pd399] ([NMeV]L[NMeL][NMePhe(3-Cl)][3Pal(6-NMe2)][NMeA][NMeL]T[NBuGly][NMeA]D-Piperidide; lactam N-11), `CCCCN1CC(=O)N(C)[C@@H](CC(C)C)C(=O)N[C@H](C(=O)N2CCCCC2)CC(=O)N(C)[C@@H](C)C(=O)N[C@@H](Cc2ccc(N(C)C)nc2)C(=O)N(C)[C@@H](C)C(=O)N(C)[C@@H](C)C(=O)N[C@@H](CC(C)C)C(=O)N(C)[C@@H](Cc2cccc(Cl)c2)C(=O)N(C)[C@@H](CC(C)C)C(=O)N[C@@H]([C@@H](C)O)C1=O` [pd400] ([NMeA][3Pal(6-NMe2)][NMeA][NMeA]L[NMePhe(3-Cl)][NMeL]T[NBuGly][NMeL]D-Piperidide; lactam N-11) is 1.5-fold higher in Papp A→B at 180 min: 1.5 ×10⁻⁶ cm/s for the first, 2.3 ×10⁻⁶ cm/s for the second.

First: CCCOC[C@H]1C(=O)N[C@@H](Cc2ccc(N(C)C)nc2)C(=O)N(C)[C@@H](Cc2cccc(Cl)c2)C(=O)N(C)[C@@H](C)C(=O)N[C@@H]([C@@H](C)O)C(=O)N(CCC(C)C)CC(=O)N(C)[C@@H](C(C)C)C(=O)N[C@H](C(=O)N2CCCCC2)CC(=O)N(C)[C@@H](C)C(=O)N[C@@H](CC(C)C)C(=O)N(C)[C@@H](CC(C)C)C(=O)N1C [pd401] ([NMeA]L[NMeL][NMeS](Propyl)[3Pal(6-NMe2)][NMePhe(3-Cl)][NMeA]T[N(isopentyl)Gly][NMeV]D-Piperidide; lactam N-11)
Second: CC[C@H]1C(=O)N(C)[C@@H](Cc2ccccc2)C(=O)N[C@@H](C)C(=O)N(C)[C@@H](CC(C)C)C(=O)N(C)[C@@H](CC)C(=O)N[C@@H]([C@@H](C)O)C(=O)N(CCc2ccccc2)CC(=O)N(C)[C@@H](CC(C)C)C(=O)N[C@H](C(=O)N2CCCCC2)CC(=O)N(C)[C@@H](C(C)C)C(=O)N[C@@H](CC(C)C)C(=O)N1C [pd410] ([NMeV]L[NMeAbu][NMeF]A[NMeL][NMeAbu]T[Gly(NCH2CH2Ph)][NMeL]D-Piperidide; lactam N-11)
The Papp A→B at 180 min of the first is 2.1-fold lower: 2.9 ×10⁻⁶ cm/s for the first, 6 ×10⁻⁶ cm/s for the second.

Compared with `CCCCCN1CC(=O)N(C)[C@@H](CC(C)C)C(=O)N[C@H](C(=O)N2CCCCC2)CC(=O)N(C)[C@@H](C(C)C)C(=O)N[C@@H](CC(C)C)C(=O)N(C)[C@@H](CC)C(=O)N(C)[C@@H](Cc2ccccc2)C(=O)N[C@@H](C)C(=O)N(C)[C@@H](Cc2ccccc2)C(=O)N(C)[C@@H](CC)C(=O)N[C@@H]([C@@H](C)O)C1=O` [pd403] ([NMeV]L[NMeAbu][NMeF]A[NMeF][NMeAbu]T[NPentylGly][NMeL]D-Piperidide; lactam N-11), `CCCCCN1CC(=O)N[C@@H]([C@@H](C)O)C(=O)N(C)CC(=O)N(C)[C@@H](CC(C)C)C(=O)N[C@H](C(=O)N2CCCCC2)CC(=O)N(C)[C@@H](CC)C(=O)N[C@@H](CC(C)C)C(=O)N(C)[C@@H](CC(C)C)C(=O)N(C)[C@@H](Cc2ccccc2)C(=O)N[C@@H](CC)C(=O)N(C)[C@@H](Cc2ccccc2)C1=O` [pd408] ([NMeAbu]L[NMeL][NMeF][Abu][NMeF][NPentylGly]T[Sar][NMeL]D-Piperidide; lactam N-11) is 5-fold lower in Papp A→B at 180 min: 9 ×10⁻⁶ cm/s for the first, 1.8 ×10⁻⁶ cm/s for the second.

Going from `CCCCCN1CC(=O)N(C)[C@@H](Cc2ccccc2)C(=O)N(C)[C@@H](CC(C)C)C(=O)N[C@@H](COC(C)(C)C)C(=O)N(C)[C@@H](CC(C)C)C(=O)N[C@H](C(=O)N2CCCCC2)CC(=O)N(C)CC(=O)N(C)[C@@H](Cc2ccccc2)C(=O)N[C@@H](C(C)C)C(=O)N(C)[C@@H](C)C(=O)N[C@@H]([C@@H](C)O)C1=O` [pd404] ([Sar][NMeF]V[NMeA]T[NPentylGly][NMeF][NMeL]S(tBu)[NMeL]D-Piperidide; lactam N-11) to `CC[C@H](C)[C@@H]1NC(=O)[C@H](CC(C)C)N(C)C(=O)CN(C)C(=O)C[C@@H](C(=O)N2CCCCC2)NC(=O)[C@H](CC(C)C)N(C)C(=O)[C@@H](COC(C)(C)C)NC(=O)[C@H](CC)N(C)C(=O)[C@H](Cc2ccccc2)N(C)C(=O)CN(CCc2ccccc2)C(=O)[C@H]([C@@H](C)O)NC(=O)[C@H](CC)N(C)C1=O` [pd411] ([Sar][NMeL]I[NMeAbu]T[Gly(NCH2CH2Ph)][NMeF][NMeAbu][dS](tBu)[NMeL]D-Piperidide; lactam N-11), the Papp A→B at 180 min rises from 1.3 ×10⁻⁶ cm/s to 3.3 ×10⁻⁶ cm/s (2.5-fold).

`CCCCCN1CC(=O)N(C)[C@@H](Cc2ccccc2)C(=O)N[C@@H](CC(C)C)C(=O)N(C)[C@@H](CC)C(=O)N[C@@H]([C@@H](C)O)C(=O)N(C)CC(=O)N(C)[C@@H](Cc2ccccc2)C(=O)N(C)[C@@H](CC)C(=O)N[C@@H](COC(C)(C)C)C(=O)N(C)[C@@H](CC(C)C)C(=O)N[C@H](C(=O)N2CCCCC2)CC1=O` [pd405] ([NPentylGly][NMeF]L[NMeAbu]T[Sar][NMeF][NMeAbu]S(tBu)[NMeL]D-Piperidide; lactam N-11) and `CC[C@H]1C(=O)N[C@@H]([C@@H](C)O)C(=O)N(C)CC(=O)N(C)[C@@H](Cc2ccccc2)C(=O)N(C)[C@@H](CC)C(=O)N[C@@H](COC(C)(C)C)C(=O)N(C)[C@@H](CC(C)C)C(=O)N[C@H](C(=O)N2CCCCC2)CC(=O)N(CCc2ccccc2)CC(=O)N(C)[C@@H](CC(C)C)C(=O)N[C@@H](CC(C)C)C(=O)N1C` [pd412] ([Gly(NCH2CH2Ph)][NMeL]L[NMeAbu]T[Sar][NMeF][NMeAbu]S(tBu)[NMeL]D-Piperidide; lactam N-11) are within 1.5-fold of each other in Papp A→B at 180 min: 2.2 ×10⁻⁶ cm/s for the first, 1.5 ×10⁻⁶ cm/s for the second.

First: CCCCCN1CC(=O)N[C@@H]([C@@H](C)O)C(=O)N(C)[C@@H](C)C(=O)N(C)[C@@H](CC(C)C)C(=O)N[C@@H](COC(C)(C)C)C(=O)N(C)[C@@H](Cc2ccccc2)C(=O)N(C)[C@@H](CC(C)C)C(=O)N[C@H](C(=O)N2CCCCC2)CC(=O)N[C@H](C)C(=O)N(C)[C@@H](Cc2ccccc2)C(=O)N[C@@H](C(C)C)C1=O [pd407] ([dA][NMeF]V[NPentylGly]T[NMeA][NMeL]S(tBu)[NMeF][NMeL]D-Piperidide; lactam N-11)
Second: CC[C@H](C)[C@@H]1NC(=O)[C@H](CC(C)C)N(C)C(=O)[C@@H](C)NC(=O)C[C@@H](C(=O)N2CCCCC2)NC(=O)[C@H](CC)N(C)C(=O)[C@H](Cc2ccccc2)N(C)C(=O)[C@H](COC(C)(C)C)NC(=O)[C@H](CC(C)C)N(C)C(=O)[C@H](CC)N(C)C(=O)[C@H]([C@@H](C)O)NC(=O)CN(CCc2ccccc2)C1=O [pd414] ([dA][NMeL]I[Gly(NCH2CH2Ph)]T[NMeAbu][NMeL]S(tBu)[NMeF][NMeAbu]D-Piperidide; lactam N-11)
The Papp A→B at 180 min of the first is 1.9-fold higher: 3 ×10⁻⁶ cm/s for the first, 1.6 ×10⁻⁶ cm/s for the second.

`CC[C@H]1C(=O)N[C@@H]([C@@H](C)O)C(=O)N(CCc2ccccc2)CC(=O)N(C)[C@@H](CC(C)C)C(=O)N[C@H](COC(C)(C)C)C(=O)N(C)[C@@H](CC(C)C)C(=O)N(C)[C@@H](CC)C(=O)N[C@H](C(=O)N2CCCCC2)CC(=O)N[C@H](C)C(=O)N(C)[C@@H](Cc2ccccc2)C(=O)N[C@@H](CC(C)C)C(=O)N1C` [pd409] ([dA][NMeF]L[NMeAbu]T[Gly(NCH2CH2Ph)][NMeL][dS](tBu)[NMeL][NMeAbu]D-Piperidide; lactam N-11) and `CC[C@H](C)[C@@H]1NC(=O)[C@H](CC(C)C)N(C)C(=O)[C@@H](CC(C)C)NC(=O)C[C@@H](C(=O)N2CCCCC2)NC(=O)[C@H](CC(C)C)N(C)C(=O)[C@H](Cc2ccccc2)N(C)C(=O)[C@H](COC(C)(C)C)NC(=O)CN(CCc2ccccc2)C(=O)CN(C)C(=O)[C@H]([C@@H](C)O)NC(=O)[C@H](CC)N(C)C1=O` [pd413] ([dL][NMeL]I[NMeAbu]T[Sar][Gly(NCH2CH2Ph)]S(tBu)[NMeF][NMeL]D-Piperidide; lactam N-11) are within 1.5-fold of each other in Papp A→B at 180 min: 1.4 ×10⁻⁶ cm/s for the first, 1.5 ×10⁻⁶ cm/s for the second.

Same assay, conditions: human; Papp, Caco-2 membrane permeability, improved method; read-out: Caco-2

Molecule `CCCCN1CC(=O)N(C)[C@@H](CC(C)C)C(=O)N[C@H](C(=O)N2CCCCC2)CC(=O)N(C)[C@@H](C)C(=O)N[C@@H](Cc2ccc(N(C)C)nc2)C(=O)N(C)[C@@H](CC(C)C)C(=O)N(C)[C@@H](Cc2ccccc2)C(=O)N[C@@H](CC(C)C)C(=O)N(C)[C@@H](C)C(=O)N(C)[C@@H](CC(C)C)C(=O)N[C@@H]([C@@H](C)O)C1=O` [pd398] ([NMeA][3Pal(6-NMe2)][NMeL][NMeF]L[NMeA][NMeL]T[NBuGly][NMeL]D-Piperidide; lactam N-11) has a Papp A→B at 180 min of 2.7 ×10⁻⁶ cm/s.
